Experimental data: US10392368B2, “Pyrazolo and triazolo bicyclic compounds as JAK kinase inhibitors” (THERAVANCE BIOPHARMA R&D IP, LLC, priority 2017, dated 2019)

Tested on: IL-2 stimulated pSTAT5 in PBMC CD4+ T cells
Experiment: Inhibition of IL-2 stimulated pSTAT5 in human PBMC CD4+ T cells
Assay type: cell-based
Settings: flow cytometry
Experimental: The potency of test compounds for inhibition of interleukin-2 (IL-2) stimulated STAT5 phosphorylation was measured in human peripheral blood mononuclear cell (PBMC) CD4+ T cells using flow cytometry. Because IL-2 signals through JAK3, this assay provides a measure of JAK3 cellular potency in human primary cells.
Phosphorylated STAT5 was measured via flow cytometry by measuring pSTAT5 response in CD4+ T cells (Becton Disckinson, AlexaFluor 647 Mouse anti-Human STAT5 (pY694) and PE Mouse anti-Human CD4).
Human PBMCs were isolated from donors via Ficoll gradient and frozen at −80° C. Frozen PBMCs were thawed and cultured for one hour in a 37° C., 5% CO2 humidified incubator in RPMI (Life Technologies) supplemented with 10% Heat Inactivated Fetal Bovine Serum (FBS, Life Technologies), 2 mM Glutamax (Life Technologies), 25 mM HEPES (Life Technologies) and 1× Pen/Strep (Life Technologies). Cells were seeded into 2 ml deep well plates at 4e6 cells/ml (50 μl/well). […]
To determine the inhibitory potency of test compounds in response to IL-2, the median fluorescence intensity of pSTAT5 in CD4+ gated cells was measured in human PBMCs with a BD LSRII with analysis in FCS Express 6. IC50 values were determined from analysis of the inhibition curves of signal intensity vs compound concentration. Data are expressed as pIC50 (negative decadic logarithm IC50) values (mean±standard deviation).

Row | Compound | pIC50, inhibition of IL-2 stimulated pSTAT5, compared with assay 2
1 | CN(C)C/C=C/C(=O)N1CC(C#N)(COc2cc(-c3ccc(O)c(F)c3)cc3[nH]ncc23)C1 [Compound 8, (E)-1-(4-(dimethylamino)but-2-enoyl)-3-(((6-(3-fluoro-4-hydroxyphenyl)-1Hindazol-4-yl)oxy)methyl)azetidine-3-carbonitrile] | values very similar to the ones obtained in assay 2
2 | CN(C)C/C=C/C(=O)N1CCC(C)(Oc2cc(-c3ccc(O)cc3)cc3[nH]ncc23)CC1 [Compound 9, (E)-4-(dimethylamino)-1-(4-((6-(4-hydroxyphenyl)-1H-indazol-4-yl)oxy)-4-methylpiperidin-1-yl)but-2-en-1-one] | values very similar to the ones obtained in assay 2
